Laboratory results from patent US20250354986A1, “AFFINITY ENCODED OSCILLATOR ARRAYS, METHODS, AND RELATED ASPECTS FOR MEASURING MOLECULAR BINDING KINETICS” (ARIZONA BOARD OF REGENTS ON BEHALF OF ARIZONA STATE …, priority 2024, published 2025).
Structures can show the parent of a compound that is named as a salt.

What was measured:
[1] = stated without a test; cited from earlier work
[2] = system: decoding sequence 1; settings: for averaged equilibrium affinity constant (KA): first barcode group hybridized with its DNA decoding sequence, 37 individual nano-oscillators per probe; for Median of amplitude change for association: group 1 barcode nano-oscillators, hybridization signal
Experimental: (§1) To enable affinity-based barcoding, it is important to ensure nanoarrays are addressable by distinct affinities induced by different nucleotides mismatches. […] Perfectly matched, two and three-nucleotide mismatched complementary single DNA strains were used as barcode sequences on the nanocomplexes. Attributed to the charge-sensitive detection capability of nano-oscillators, hybridization of the charge-rich decoding DNA onto the nano-oscillators were recorded in real-time, enabling the calculation of hybridization affinities.
(§2) In FIG. 8, for each kind of barcode sequence, 37 individual nano-oscillators were measured for statistical study.
(§3) The second step of the measurement is decoding, which identifies the type of GPCRs on individual nano-oscillators, and was achieved by sequentially measuring the binding affinity of all decoding sequences. Each round of decoding flowed 50 nM of a specific readout sequence to hybridize with the barcodes on the nano-oscillator for 550 seconds, followed by buffer washing to dissociate the readout sequence for a duration of 250 seconds. Conducting the ligand screening before decoding can prevent potential issue of saturated oscillation amplitude change that may arise from excessively high negatively charged nano-oscillators after hybridization with the decoding sequence. Throughout all experiments, the injected sample was driven by a syringe pump and flowed onto the upper right portion of the field-of-view to minimize mass transport issues.
(§4) After recording the images, a region of interest (ROI) was selected on each particle (covering the parabolic tail), and the mean intensity within the ROI was calculated as the plasmonic intensity. An adjacent region with the same size was selected as the reference region, and its intensity was used to remove common noise from the ROI. The oscillation amplitude was obtained in every second using fast Fourier transform (FFT). The FFT intensity at the oscillation frequency was then plotted against time to illustrate both the binding trend and decoding process. Response curve fitting and calculation of binding kinetic constants were conducted using Scrubber (BioLogic Software). All data were visualized using Origin and MATLAB.

[3] = system: decoding sequence 2; settings: for Median of amplitude change for association: group 2 barcode nano-oscillators, hybridization signal; for averaged equilibrium affinity constant (KA): second barcode group hybridized with its DNA decoding sequence, 37 individual nano-oscillators per probe
Experimental: as §1, §2, §3, §4

[4] = system: K082 virions with no GPCR displayed on the envelope; experiment: Control nano-oscillators: K082 virion with no GPCR, or AuNP only; settings: K082 virion with no GPCR displayed, or AuNP only without virion
Experimental: By fitting the binding curves with the first order kinetics model, the associate rate constant, dissociate rate constant and equilibrium constants for each nano-oscillator were obtained. […] To validate the individual nano-oscillator results, interactions of the same ligand with high density ensemble virion-oscillators were measured (FIG. 15). The binding response curves are the averaged oscillation amplitude of the entire ensemble area as a function of time. […] This phenomenon is likely due to the heterogeneity in GPCR expression level among individual virions, which will affect maximum binding signal, but not the binding kinetics.

| Compound | averaged equilibrium affinity constant (KA) [2] | Median of amplitude change for association [2] [nm] | Median of amplitude change for association [3] [nm] | averaged equilibrium affinity constant (KA) [3] | other results |
| --- | --- | --- | --- | --- | --- |
| Tocrifluor | – | – | – | – | charge at pH 7.4 [1]: neutral |
| biotin-(CH2)6-5′-ACACTACCTCGGCCCTCCTC-3′ [barcode 2 (group 1)] | (5.3±0.74)×10^7 M^−1 | 9.6 | – | – | – |
| biotin-(CH2)6-5′-GAGTTACTACAGACCATCGT-3′ [barcode 2 (group 2)] | – | – | 10.9 | (6.5±1.1)×10^7 M^−1 | – |
| biotin-(CH2)6-5′-GAGTTGCTACAGACCTTCGT-3′ [barcode 1 (group 2)] | – | – | 11.6 | (7.1±0.98)×10^8 M^−1 | – |
| biotin-(CH2)6-5′-ACACTACCTCAGCCCTCCTC-3′ [barcode 3 (group 1)] | (5.9±0.82)×10^6 M^−1 | 7.5 | – | – | – |
| biotin-(CH2)6-5′-ACACTACCTCAGCCCTCCTC-3′ [barcode 3 (group 2)] | – | – | 7.2 | (2.0±0.78)×10^6 M^−1 | – |
| CC(C)NCC(O)COc1cccc2ccccc12 (centres unmarked) [Propranolol, Propranolol hydrochloride] | – | – | – | – | oscillation amplitude response of control nano-oscillators to ligand [4]: not obvious responding |
| biotin-(CH2)6-5′-ACAATACCTCGGCCCTTCTC-3′ [barcode 1 (group 1)] | (8.1±1.1)×10^8 M^−1 | 9.7 | – | – | – |
